Legend:
pancreatic cancer [1] = assay: Distribution of a radioactive diagnostic agent in cancer-bearing hamster (cancer/organ radioactivity level ratio); settings: 300 μCi i.v., 96 hours after administration
Protocol: With lapse of time, the animals were sacrificed, and the organs were extracted and subjected to measurement of radioactivity and weight, from which the radioactivity level ratio between the cancer and each organ was determined.
With lapse of time, the animals were sacrificed, and the ogans were extracted and subjected to measurement of radioactivity and weight, from which the radioactivity level ratio between the cancer and each organ was determined.

[2] = tested on: inflammation (turpentine oil induced); assay: Distribution in cancer-bearing and inflammation-induced hamsters, inflammation to tissue; settings: 72 hour post-injection
Protocol: (§1) Scintigraphy was obtained 72 and 96 hours after the administration by the use of a gamma-camera equipped with a medium energy high resolution type collimator.

[3] = tested on: inflammation (croton oil induced); assay: Distribution in inflammation-induced rats, inflammation to tissue; format: in vivo, SD rats
Protocol: SD rats of about 200 grams in bodyweight received croton oil (0.1 ml) at the right hind leg subcutaneously to induce inflammation. […] The radioactivity level ratio between the inflamation and each tissue was determined.

tumor = assay: Distribution in cancer-bearing and inflammation-induced hamsters, tumor to tissue
Protocol: as §1

pancreatic cancer [4] = assay: Scintigraphy in cancer-bearing hamster; format: in vivo; settings: 300 μCi i.v., 72 and 96 hours after administration
Protocol: as §1

[5] = hamster, mean and s.d. for 3 animals, or mean for 2 animals
[6] = SD rat, 72 hour post-injection, mean and s.d. for 3 animals
[7] = 72 hour post-injection, mean and s.d. for 3 animals, or mean for 2 animals

Substance: 2-[1-(^111 In-diethylenetriamine-tetraacetic acid-acetyloxyethane)oxyethyl]-4-[1-(2-hydroxyethyl)oxyethyl] Ga-deuteroporphyrin [^111 In--monoDTPA--EG Ga--DP]
- Cancer/Blood radioactivity level ratio (pancreatic cancer [1]): 61.89
- Cancer/Heart radioactivity level ratio (pancreatic cancer [1]): 3.41
- Cancer/Kidney radioactivity level ratio (pancreatic cancer [1]): 0.91
- Cancer/Liver radioactivity level ratio (pancreatic cancer [1]): 0.53
- Cancer/Lung radioactivity level ratio (pancreatic cancer [1]): 1.33
- Cancer/Spleen radioactivity level ratio (pancreatic cancer [1]): 0.43
- imaging of inflammation compared with ^67 Ga citrate (in words) [2]: inferior to ^67 Ga citrate
- Inflammation to tissue concentration ratio: Blood [2, 5]: 22.96 ± 9.56
- Inflammation to tissue concentration ratio: Heart [2, 5]: 0.49 ± 0.26
- Inflammation to tissue concentration ratio: Kidney [2, 5]: 0.33 ± 0.13
- Inflammation to tissue concentration ratio: Liver [2, 5]: 0.21 ± 0.16
- Inflammation to tissue concentration ratio: Lung [2, 5]: 0.21 ± 0.14
- Inflammation to tissue concentration ratio: Muscle [2, 5]: 8.71 ± 2.98
- Inflammation to tissue concentration ratio: Spleen [2, 5]: 0.06 ± 0.01
- Inflammation to tissue concentration ratio: Blood [3, 6]: 185.25 ± 82.70
- Inflammation to tissue concentration ratio: Heart [3, 6]: 2.40 ± 0.63
- Inflammation to tissue concentration ratio: Kidney [3, 6]: 1.42 ± 0.35
- Inflammation to tissue concentration ratio: Liver [3, 6]: 0.14 ± 0.04
- Inflammation to tissue concentration ratio: Lung [3, 6]: 1.43 ± 0.32
- Inflammation to tissue concentration ratio: Muscle [3, 6]: 19.23 ± 10.45
- Inflammation to tissue concentration ratio: Spleen [3, 6]: 0.18 ± 0.03
- accumulation in inflammation compared with ^67 Ga citrate (in words) ([3]; from Table 6): much lesser accumulation in inflammation than ^67 Ga citrate
- imaging of tumor compared with ^67 Ga citrate (in words) (tumor; 72 hour post-injection): superior to ^67 Ga citrate
- Tumor to tissue concentration ratio: Blood (tumor; [7]): 55.75 ± 10.61
- Tumor to tissue concentration ratio: Heart (tumor; [7]): 1.14 ± 0.28
- Tumor to tissue concentration ratio: Kidney (tumor; [7]): 0.79 ± 0.08
- Tumor to tissue concentration ratio: Liver (tumor; [7]): 0.21 ± 0.06
- Tumor to tissue concentration ratio: Lung (tumor; [7]): 0.52 ± 0.33
- Tumor to tissue concentration ratio: Muscle (tumor; [7]): 22.16 ± 6.53
- Tumor to tissue concentration ratio: Spleen (tumor; [7]): 0.16 ± 0.03
- affinities to tumor and inflammation (in words) (tumor; from Table 5, compared with each other): nearly equal in affinities to tumor and inflammation
- scintigraphic imaging of the locus of cancer (pancreatic cancer [4]): the locus of cancer could be clearly imaged at both stages
